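Five concentrations, 48 hours, 96-well plates. GI50 = concentration required for 50% inhibition of growth.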 The source made the active and inactive calls. Rule as the data show it: active = GI50 up to about 1.1 µM and inactive = higher.
What was measured:
Assay in all cases: NCI tumour cell line growth inhibition, 48 h
KM12 = tested on: KM12
OVCAR-8 = tested on: OVCAR-8
OVCAR-5 = tested on: OVCAR-5
CAKI-1 = tested on: CAKI-1
MOLT-4 = tested on: MOLT-4
786-0 = tested on: 786-0
NCI/ADR-RES = tested on: NCI/ADR-RES
SK-OV-3 = tested on: SK-OV-3
SK-MEL-5 = tested on: SK-MEL-5
PC-3 = tested on: PC-3
U-251 = tested on: U-251
Hs-578T = tested on: Hs-578T
DU-145 = tested on: DU-145
IGROV-1 = tested on: IGROV-1
TK-10 = tested on: TK-10
RXF 393 = tested on: RXF 393
OVCAR-4 = tested on: OVCAR-4
NCI-H522 = tested on: NCI-H522
UO-31 = tested on: UO-31
HCC 2998 = tested on: HCC 2998

SMILES | GI50 (KM12) | GI50 (OVCAR-8) | GI50 (OVCAR-5) | GI50 (CAKI-1) | GI50 (MOLT-4) | GI50 (786-0) | GI50 (NCI/ADR-RES) | GI50 (SK-OV-3) | GI50 (SK-MEL-5) | GI50 (PC-3) | GI50 (U-251) | GI50 (Hs-578T) | GI50 (DU-145) | GI50 (IGROV-1) | GI50 (TK-10) | GI50 (RXF 393) | GI50 (OVCAR-4) | GI50 (NCI-H522) | GI50 (UO-31) | GI50 (HCC 2998)
Cc1ccc(NC(=O)c2ccccc2C(=O)O)cc1C | > 100 µM (inactive) | > 100 µM (inactive) | > 100 µM (inactive) | > 100 µM (inactive) | > 100 µM (inactive) | > 100 µM (inactive) | > 100 µM (inactive) | > 100 µM (inactive) | > 100 µM (inactive) | > 100 µM (inactive) | > 100 µM (inactive) | > 100 µM (inactive) | > 100 µM (inactive) | > 100 µM (inactive) | > 100 µM (inactive) | > 100 µM (inactive) | > 100 µM (inactive) | > 100 µM (inactive) | – | –
CC1(C)SC2C(NC(=O)Cc3ccccc3)C(=O)N2C1C(=O)O (configuration not stated) | > 100 µM (inactive) | > 100 µM (inactive) | > 100 µM (inactive) | > 100 µM (inactive) | > 100 µM (inactive) | > 100 µM (inactive) | > 100 µM (inactive) | > 100 µM (inactive) | > 100 µM (inactive) | > 100 µM (inactive) | > 100 µM (inactive) | > 100 µM (inactive) | > 100 µM (inactive) | > 100 µM (inactive) | > 100 µM (inactive) | > 100 µM (inactive) | > 100 µM (inactive) | > 100 µM (inactive) | > 100 µM (inactive) | –
COc1cc2cnc(-c3ccccc3)cc2cc1OC | 26.9 µM (inactive) | 26.5 µM (inactive) | 33.2 µM (inactive) | 20.7 µM (inactive) | 20 µM (inactive) | 36.4 µM (inactive) | 26 µM (inactive) | 39.7 µM (inactive) | 11.8 µM (inactive) | 23 µM (inactive) | 19.8 µM (inactive) | 12.8 µM (inactive) | 37.3 µM (inactive) | 19.1 µM (inactive) | 25.7 µM (inactive) | 37.2 µM (inactive) | 24.3 µM (inactive) | 20 µM (inactive) | 29.5 µM (inactive) | –
C[C@@H](c1ccccc1)n1c(N)c(-c2ccccn2)c2ccc([N+](=O)[O-])cc2c1=O | 67.9 µM (inactive) | 51.2 µM (inactive) | – | 51.8 µM (inactive) | – | > 100 µM (inactive) | 26.9 µM (inactive) | – | 25.7 µM (inactive) | 17.5 µM (inactive) | 47.5 µM (inactive) | 26.9 µM (inactive) | 31.8 µM (inactive) | – | 31.2 µM (inactive) | – | 80.2 µM (inactive) | 48.2 µM (inactive) | 14.5 µM (inactive) | > 100 µM (inactive)
c1ccc2c(c1)N[C@@H]1c3[nH]c4ccccc4c3CC[C@H]21 | 14 µM (inactive) | 12.9 µM (inactive) | 13.2 µM (inactive) | 18.2 µM (inactive) | 13.9 µM (inactive) | 15.1 µM (inactive) | 13.6 µM (inactive) | 14.6 µM (inactive) | 14.3 µM (inactive) | 11.9 µM (inactive) | 14.2 µM (inactive) | 10.2 µM (inactive) | 16.9 µM (inactive) | 3.95 µM (inactive) | 37 µM (inactive) | 17.9 µM (inactive) | – | 11.6 µM (inactive) | 17.7 µM (inactive) | –
COc1ccc2c(=O)c(-c3cc4c(cc3OC)OCO4)coc2c1 | > 100 µM (inactive) | 55.2 µM (inactive) | > 100 µM (inactive) | 51.8 µM (inactive) | > 100 µM (inactive) | 60.1 µM (inactive) | > 100 µM (inactive) | > 100 µM (inactive) | > 100 µM (inactive) | > 100 µM (inactive) | 59.2 µM (inactive) | > 100 µM (inactive) | > 100 µM (inactive) | 58.9 µM (inactive) | 56.1 µM (inactive) | – | > 100 µM (inactive) | > 100 µM (inactive) | > 100 µM (inactive) | > 100 µM (inactive)
NC(=S)N/N=C1\CCCCC1C(O)(C(F)(F)Cl)C(F)(F)Cl (configuration not stated) | > 10 µM (inactive) | > 10 µM (inactive) | > 10 µM (inactive) | – | > 10 µM (inactive) | > 10 µM (inactive) | > 10 µM (inactive) | > 10 µM (inactive) | > 10 µM (inactive) | > 10 µM (inactive) | > 10 µM (inactive) | > 10 µM (inactive) | > 10 µM (inactive) | > 10 µM (inactive) | > 10 µM (inactive) | > 10 µM (inactive) | > 10 µM (inactive) | > 10 µM (inactive) | – | > 10 µM (inactive)
CCc1n[nH]c(=O)n1N | > 100 µM (inactive) | > 100 µM (inactive) | > 100 µM (inactive) | > 100 µM (inactive) | > 100 µM (inactive) | > 100 µM (inactive) | > 100 µM (inactive) | > 100 µM (inactive) | > 100 µM (inactive) | > 100 µM (inactive) | > 100 µM (inactive) | > 100 µM (inactive) | > 100 µM (inactive) | > 100 µM (inactive) | > 100 µM (inactive) | – | > 100 µM (inactive) | > 100 µM (inactive) | > 100 µM (inactive) | > 100 µM (inactive)
COc1ccc(Cc2cc(Cc3ccc(OC)cc3)cc(Cc3ccc(OC)cc3)c2)cc1 | > 100 µM (inactive) | > 100 µM (inactive) | > 100 µM (inactive) | – | > 100 µM (inactive) | > 100 µM (inactive) | > 100 µM (inactive) | > 100 µM (inactive) | – | > 100 µM (inactive) | > 100 µM (inactive) | > 100 µM (inactive) | > 100 µM (inactive) | > 100 µM (inactive) | > 100 µM (inactive) | – | > 100 µM (inactive) | > 100 µM (inactive) | > 100 µM (inactive) | > 100 µM (inactive)
COC(=O)c1ccc(/C=C/c2cc(O)ccc2O)cc1 | 3.81 µM (inactive) | 2.67 µM (inactive) | 5.07 µM (inactive) | 2.43 µM (inactive) | 0.255 µM (active) | 3.05 µM (inactive) | 2.08 µM (inactive) | – | 3.82 µM (inactive) | 1.48 µM (inactive) | 2.51 µM (inactive) | 4.95 µM (inactive) | 14.9 µM (inactive) | 2.62 µM (inactive) | 8.43 µM (inactive) | 2.25 µM (inactive) | 4.5 µM (inactive) | 0.194 µM (active) | 1.47 µM (inactive) | 20 µM (inactive)
Cc1ccccc1/N=C/N(C)C | – | 33.9 µM (inactive) | 72.8 µM (inactive) | > 100 µM (inactive) | 29.9 µM (inactive) | 70.3 µM (inactive) | > 100 µM (inactive) | > 100 µM (inactive) | 17.2 µM (inactive) | 26.7 µM (inactive) | 39.4 µM (inactive) | 44.7 µM (inactive) | 44.2 µM (inactive) | 37.3 µM (inactive) | 54.6 µM (inactive) | 50.4 µM (inactive) | 37.5 µM (inactive) | 21.2 µM (inactive) | 74.6 µM (inactive) | –
NCCCNCCCCN1CCOC1=O | > 100 µM (inactive) | > 100 µM (inactive) | > 100 µM (inactive) | > 100 µM (inactive) | > 100 µM (inactive) | > 100 µM (inactive) | > 100 µM (inactive) | > 100 µM (inactive) | > 100 µM (inactive) | > 100 µM (inactive) | > 100 µM (inactive) | > 100 µM (inactive) | > 100 µM (inactive) | > 100 µM (inactive) | > 100 µM (inactive) | – | – | > 100 µM (inactive) | > 100 µM (inactive) | > 100 µM (inactive)
COC(=O)C1OC(SCCN)C(O)C(O)C1O (configuration not stated) | > 100 µM (inactive) | > 100 µM (inactive) | > 100 µM (inactive) | > 100 µM (inactive) | > 100 µM (inactive) | > 100 µM (inactive) | > 100 µM (inactive) | > 100 µM (inactive) | > 100 µM (inactive) | > 100 µM (inactive) | > 100 µM (inactive) | > 100 µM (inactive) | > 100 µM (inactive) | > 100 µM (inactive) | > 100 µM (inactive) | > 100 µM (inactive) | > 100 µM (inactive) | > 100 µM (inactive) | – | –
CCOC1Oc2ccccc2-c2nc(SC)ncc21 (configuration not stated) | > 100 µM (inactive) | > 100 µM (inactive) | > 100 µM (inactive) | > 100 µM (inactive) | 50.8 µM (inactive) | > 100 µM (inactive) | 82.8 µM (inactive) | > 100 µM (inactive) | 52.5 µM (inactive) | > 100 µM (inactive) | > 100 µM (inactive) | 79.8 µM (inactive) | 96.6 µM (inactive) | 35.2 µM (inactive) | 68.4 µM (inactive) | > 100 µM (inactive) | > 100 µM (inactive) | 71.3 µM (inactive) | 51.3 µM (inactive) | –
c1ccc(/N=C(/Nc2ccccc2)N2CCCCC2)cc1 | 72.1 µM (inactive) | > 100 µM (inactive) | > 100 µM (inactive) | > 100 µM (inactive) | 51.5 µM (inactive) | > 100 µM (inactive) | > 100 µM (inactive) | 74.1 µM (inactive) | > 10 µM (inactive) | 80.2 µM (inactive) | > 100 µM (inactive) | 18.7 µM (inactive) | > 10 µM (inactive) | 93.5 µM (inactive) | > 100 µM (inactive) | – | > 100 µM (inactive) | 67.3 µM (inactive) | 49.3 µM (inactive) | –

Reference: ChEMBL document CHEMBL1201862, “PubChem BioAssay data set” (2004)
